According to ChEMBL document CHEMBL3593220, “Antimitotic and antivascular activity of heteroaroyl-2-hydroxy-3,4,5-trimethoxybenzenes” (Bioorg Med Chem, 2015):
Calls of active or inactive are those of the source. The calls are words filed in the database; no cut-off is given here.

Tests used:
[1] = test system: HT-29; assay: Antiproliferative activity against human HT-29 cells after 72 hrs by methylene blue assay; assay type: functional, cell-based
[2] = test system: KB; assay: Antiproliferative activity against human KB cells after 72 hrs by methylene blue assay; assay type: functional, cell-based
[3] = Antiproliferative activity against human MKN45 cells after 72 hrs by methylene blue assay; assay type: functional, cell-based; settings: MKN-45, 72 h
[4] = Antiproliferative activity against human KB-S15 cells expressing P-gp170/MDR after 72 hrs by methylene blue assay; assay type: functional, cell-based; settings: KB-S15, 72 h
[5] = Antiproliferative activity against human KB-VIN10 cells expressing P-gp170/MDR after 72 hrs by methylene blue assay; assay type: functional, cell-based; settings: KB-VIN10, 72 h
[6] = Antiproliferative activity against human KB-7d cells expressing MRP after 72 hrs by methylene blue assay; assay type: functional, cell-based; settings: KB7D
[7] = target: Tubulin (Bos taurus, UniProt Q6B856+Q862F3); assay: Inhibition of bovine brain tubulin polymerization after 30 mins
Chain of Tubulin (Q6B856 whole entry): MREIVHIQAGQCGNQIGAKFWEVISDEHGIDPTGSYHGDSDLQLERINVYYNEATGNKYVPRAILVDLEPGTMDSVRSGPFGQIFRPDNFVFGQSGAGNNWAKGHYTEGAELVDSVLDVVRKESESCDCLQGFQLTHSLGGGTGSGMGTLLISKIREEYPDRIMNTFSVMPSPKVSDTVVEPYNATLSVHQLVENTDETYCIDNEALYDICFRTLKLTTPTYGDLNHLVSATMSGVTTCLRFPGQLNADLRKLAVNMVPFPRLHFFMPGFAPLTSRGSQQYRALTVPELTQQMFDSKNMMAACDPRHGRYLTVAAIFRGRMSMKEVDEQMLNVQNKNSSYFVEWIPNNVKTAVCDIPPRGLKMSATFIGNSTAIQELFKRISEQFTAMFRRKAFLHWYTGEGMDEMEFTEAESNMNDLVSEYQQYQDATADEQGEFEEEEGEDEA
Chain of Tubulin (Q862F3 whole entry): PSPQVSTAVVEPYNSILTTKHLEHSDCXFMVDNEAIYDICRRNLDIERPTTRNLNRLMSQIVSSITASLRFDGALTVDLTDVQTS

[8] = target: Tubulin (Homo sapiens) (UniProt P68371+Q9H4B7+P0DPH7+P68366+Q13509+Q71U36+P04350+Q3ZCM7+P07437+P68363+Q9BQE3+Q6PEY2+Q13885+Q9BVA1+Q9BUF5); assay: Displacement of 1 uM of [3H]colchicine from biotin-labeled tubulin (unknown origin) after 2 hrs by scintillation proximity assay; assay type: protein-complex assay
[9] = test system: HUVEC; assay: Antivascular activity in HUVEC assessed as inhibition of VEGF-induced capillary tube formation at 20 nM after 4 hrs by microscopic analysis relative to control; assay type: functional, Homo sapiens; set-up: scale not given: the % may be the effect or the level left
[10] = Toxicity in HUVEC assessed as cell viability at 20 nM after 4 hrs relative to control; assay type: cell-based; settings: human, HUVEC cells; read-out: Activity
[11] = test system: HUVEC; assay: Antivascular activity in HUVEC assessed as inhibition of VEGF-induced capillary tube formation at 50 nM after 4 hrs by microscopic analysis relative to control; assay type: functional, Homo sapiens; set-up: scale not given: the % may be the effect or the level left
[12] = test system: HUVEC; assay: Antivascular activity in HUVEC assessed as inhibition of VEGF-induced capillary tube formation at 100 nM after 4 hrs by microscopic analysis relative to control; assay type: functional, Homo sapiens; set-up: scale not given: the % may be the effect or the level left
[13] = test system: HUVEC; assay: Antivascular activity in HUVEC assessed as inhibition of VEGF-induced capillary tube formation at 500 nM after 4 hrs by microscopic analysis relative to control; assay type: functional, Homo sapiens; set-up: scale not given: the % may be the effect or the level left
[14] = test system: HUVEC; assay: Antivascular activity in HUVEC assessed as inhibition of VEGF-induced capillary tube formation at 2500 nM after 4 hrs by microscopic analysis relative to control; assay type: functional, Homo sapiens; set-up: scale not given: the % may be the effect or the level left
[15] = Toxicity in HUVEC assessed as cell viability at 50 nM after 4 hrs relative to control; assay type: cell-based; settings: human, HUVEC cells; read-out: Activity
[16] = Toxicity in HUVEC assessed as cell viability at 100 nM after 4 hrs relative to control; assay type: cell-based; settings: human, HUVEC cells; read-out: Activity
[17] = Toxicity in HUVEC assessed as cell viability at 500 nM after 4 hrs relative to control; assay type: cell-based; settings: human, HUVEC cells; read-out: Activity
[18] = Toxicity in HUVEC assessed as cell viability at 2500 nM after 4 hrs relative to control; assay type: cell-based; settings: human, HUVEC cells; read-out: Activity

For COc1cc(C(=O)c2ccc3ncccc3c2)c(O)c(OC)c1OC, the Activity [1] was “Active”, the IC50 [2] was 22.9 nM and the IC50 [3] was 116 nM.

COc1cc([C@@H]2c3cc4c(cc3[C@@H](O[C@@H]3O[C@@H]5CO[C@@H](C)O[C@H]5[C@H](O)[C@H]3O)[C@H]3COC(=O)[C@H]23)OCO4)cc(OC)c1O [ETOPOSIDE] gave an IC50 [4] of 3500 nM.

With COc1cc(C(=O)c2ccnc3ccccc23)c(O)c(OC)c1OC the Activity [1] was “Active”, the IC50 [2] was 7700 nM and the IC50 [3] was 5960 nM.

For COc1cc(C(=O)c2cccc3c2ccn3C)c(O)c(OC)c1OC, the Activity [1] was “Active”, the IC50 [5] was 42.8 nM and the IC50 [2] was 57.3 nM. It also gave an IC50 [3] of 55.4 nM, an IC50 [4] of 32.6 nM and an IC50 [6] of 40 nM. For the same molecule, the IC50 [7] was 8.2 µM and the inhibition [8] was 66.3%.

With COc1ccc2nc(C(=O)c3cc(OC)c(OC)c(OC)c3O)ccc2c1 the Activity [1] was “Active”, the IC50 [2] was 230 nM and the IC50 [3] was 1160 nM.

COc1ccc(/C=C\c2cc(OC)c(OC)c(OC)c2)cc1O [COMBRETASTATIN A4] showed an IC50 [3] of 3.2 nM, an Activity [9] of 0% and a viability at 4 h, 0.02 µM [10] of 94%.

CC(=O)O[C@H]1C(=O)[C@@]2(C)[C@H]([C@H](OC(=O)c3ccccc3)[C@]3(O)C[C@H](OC(=O)[C@H](O)[C@@H](NC(=O)c4ccccc4)c4ccccc4)C(C)=C1C3(C)C)[C@]1(OC(C)=O)CO[C@@H]1C[C@@H]2O [PACLITAXEL] showed an IC50 [6] of 8.4 nM.

With COc1cc(C(=O)c2ccc3c(ccn3C)c2)c(O)c(OC)c1OC the Activity [1] was “Active”, the IC50 [5] was 20.8 nM and the IC50 [2] was 33 nM. It also gave an IC50 [3] of 93.7 nM, an IC50 [4] of 16.2 nM and an IC50 [6] of 18.2 nM. The IC50 [7] was 4.9 µM, the inhibition [8] was 84.4% and the Activity [11] was 72%. For the same molecule, the Activity [12] was 53%, the Activity [13] was 41% and the Activity [14] was 0%. The viability at 4 h, 0.05 µM [15] was 95%, the viability at 4 h, 0.1 µM [16] was 94% and the viability at 4 h, 0.5 µM [17] was 97%. For the same molecule, the viability at 4 h, 2.5 µM [18] was 95%.

In the case of COc1ccc2c(C(=O)c3cc(OC)c(OC)c(OC)c3O)c[nH]c2c1, the Activity [1] is reported as “Active”, the IC50 [5] is reported as 9.5 nM and the IC50 [2] is reported as 8.8 nM. It also gave an IC50 [3] of 10.5 nM, an IC50 [4] of 5.8 nM and an IC50 [6] of 8.5 nM. It also gave an IC50 [7] of 4.2 µM, an inhibition [8] of 87.2% and an Activity [11] of 72%. It also gave an Activity [12] of 49%, an Activity [13] of 0% and an Activity [14] of 0%. The viability at 4 h, 0.05 µM [15] was 100%, the viability at 4 h, 0.1 µM [16] was 96% and the viability at 4 h, 0.5 µM [17] was 93%. It also gave a viability at 4 h, 2.5 µM [18] of 99%.

In the case of CC[C@]1(O)C[C@H]2CN(CCc3c([nH]c4ccccc34)[C@@](C(=O)OC)(c3cc4c(cc3OC)N(C=O)[C@H]3[C@@](O)(C(=O)OC)[C@H](OC(C)=O)[C@]5(CC)C=CCN6CC[C@]43[C@@H]65)C2)C1 [VINCRISTINE], the IC50 [4] is reported as 2.1 nM and the IC50 [6] is reported as 1.5 nM.
